Measured values from US5498624A, “Selected pyrazolyl derivatives” (Monsanto Company, priority 1995, dated 1996).

What was measured:
Format in all cases: in vivo
[1] = tested on: Erysiphe graminis f. sp. hordei; assay: Barley Powdery Mildew Foliar Assay (BPM Prot); conditions: inoculation 24 hours after application
Procedure: A) Pathogen/Inoculum Production--Leaf material infected with the barley powdery mildew fungus, Erysiphe graminis f. sp. hordei, is maintained continuously on barley seedlings, cv. Perry.
B) Host Propagation--Barley seedlings, cv. Perry, are grown to second leaf stage in a commercial soil preparation, "Metro Mix 200", amended with 100 gm/ft^3 slow release "Osmocote 14-14-14". A sufficient number of seeds are planted per pot (5 cm in diameter) in order to insure the production of 3-5 vigorous seedlings per pot. The plants are maintained in a growth chamber set at 21° C., 80% RH with a 12 hour photoperiod. Light intensity is set at 300 me/m^2/ sec.
C) Test Compound Preparation
1) Experimental compounds--Each or the compounds of the present invention are applied at 500, 100, and 20 ppm. Formulation is generally in […], 59.95% water, and 0.05% Tween 20. Four pots (with 3-5 plants/pot) at each rate are treated. The application volume is 8 ml per treatment. Formulated materials, such as commercially available products, are brought up to the appropriate treatment volume with water containing Tween®20,05% v/v.
2) Controls and standards--The commercial standards used are Corbel® (active ingredient fenpropimorph) and NUSTAR® (active ingredient flusilazole), both at the rate of 20 and/or 10 ppm. A set of control plants, treated with the formulation blank and inoculated, are also included.
D) Compound Application--Compound is sprayed onto the leaves of the plants (pots positioned on a rotating table) using a DeVilbiss Model 152 hand sprayer. Coverage of the first leaf is essential. After the plants have thoroughly dried they are returned to the growth room and randomized.
E) Inoculation/Incubation--Inoculation of the test plants takes place 24 hours after compound application. Inoculation is accomplished by gently shaking plants previously infected with the Erysiphe graminis f. sp. hordeii fungus over the test plants. This process liberates a cloud of spores which effectively and uniformly fall onto the test plants. After inoculation the plants are returned to the environmental conditions under which they were grown.
F) Evaluation--The test is assessed 6-7 days after inoculation. Treatments are evaluated by visually estimating the percentage of the leaf area infected on the first leaf. Three ratings are made on each pot (replicate). Phytotoxicity and growth effects are also noted at this time.
G) Data--All replicate data is recorded as a percent disease value. Treatment means are calculated and percent disease control is determined by the formula: (control mean--treatment mean)*100/control mean. The inoculated control treatment mean is used for this calculation. The percent protection values for the compounds of the present invention are as set out in the Table below.

[2] = tested on: Botrytis cinerea; assay: Vine Grey Mold on Berries (VGM Prot); conditions: grape berries, inoculated 24 hours after treatment
Procedure: A) Pathogen/Inoculum Production--The grey mold fungus, Botrytis cinerea, is cultured on PDA at 20° C. and 12 hours fluorescent light until the radial growth is slightly less than the plate diameter. A 1×10^6spore/ml suspension in sterile water (0.05% Tween®20) is made by dislodging spores in a flooded plate, filtering out mycelium, and adjusting the concentration.
B) Host Preparation--Thompson or Red Flame seedless table grapes from local grocery stores are used. Grapes are washed first in room temperature soapy water solution (a few drops of detergent per gallon), and then surfaced sterilized in 70% ethanol for one minute, followed by two rinses in sterile water. Berries are chosen which still have stem (pedicel) attached.
1) Experimental compounds--Each of the compounds of the present invention are applied at 200, 50, and 20 ppm. Formulation is generally in 40% acetone, 59.95% water, and 0.05% Tween®20. Replication is 6 berries per treatment. Compound is pipetted onto berries at 1.0 ml/treatment (6 berries) in a sterile petri plate. After drying, each berry is transferred to an individual well in a 12-well tissue culture plate. Formulated materials, such as commercial preparations are generally applied using the formulation only (no acetone or surfactant added).
2) Controls and Standards--Three technical grade commercial standards are used, usually at 200 and 50 ppm; benomyl, iprodione, and vinclozolin. The test controls include a uninoculated, formulation treated set as well as an inoculated, formulation treated set.
D) Inoculation/Incubation--Each berry is inoculated with 0.2 ml of spore suspension, using a sterile pipet. Incubation is in the 12-well culture plates at 20° C., 12 hour photoperiod.
E) Test Execution--One day protectant--Berries are inoculated as described 24 hours after chemical treatment.
F) Evaluation--The test is rated 7-10 days after inoculation. Percent surface area infected with disease is determined for each replicate using the values of 0, 1, 2, 5, 10, 15, 20, 25, etc. through 100%. Treatment means are calculated and percent disease control is determined by the formula "(control mean--treatment mean)*100/control mean". The untreated/inoculated control treatment is used for this calculation. The resultant percent protection or percent disease control values for the compounds of the present invention are as set out in the Table below.

[3] = tested on: Botrytis cinerea; assay: Vine Grey Mold on Berries (VGM Cur); conditions: grape berries, treated 24 hours after inoculation
Procedure: Vine Grey Mold on Berries (VGM Cur)--Assay is as set out above in EXAMPLE 11 except for step E) which is: Test Execution--In the curative test the berries are first inoculated as described, six per petri plate and placed in incubation. After 24 hours, the berries are temporarily removed from incubation, placed into 12-well tissue culture plates (one per well), treated, and then returned to incubation.

| Compound | BPM Prot percent disease control ([1]; 20 ppm foliar) [%] | BPM Prot percent disease control ([1]; 100 ppm foliar) [%] | BPM Prot percent disease control ([1]; 500 ppm foliar) [%] | VGM Prot percent disease control ([2]; 20 ppm, * = averaged value) [%] | VGM Prot percent disease control ([2]; 50 ppm, * = averaged value) [%] | VGM Prot percent disease control ([2]; 200 ppm) [%] | VGM Cur percent disease control ([3]; 20 ppm) [%] | VGM Cur percent disease control ([3]; 50 ppm) [%] |
| --- | --- | --- | --- | --- | --- | --- | --- | --- |
| C[C@@H]1CCC[C@H](c2ccccc2NC(=O)c2cn(C)nc2C(F)F)C1 (relative stereo) [Number 2, 1H-pyrazole-4-carboxamide, 3-(difluoromethyl)-1-methyl-N-[2-(-3-methylcyclohexyl)phenyl]-, cis-] | 90 | 96 | 85 | 90 | 93 | 99 | 41 | 82 |
| C[C@H]1CCC[C@H](c2ccccc2NC(=O)c2cn(C)nc2C(F)F)C1 (relative stereo) [Number 3, 1H-pyrazole-4-carboxamide, 3-(difluoromethyl)-1-methyl-N-[2-(3-methylcyclohexyl)phenyl]-, trans-] | 98 | 98 |  | 67 | 87 |  | 84 | 90 |
| CC[C@H]1CC[C@@H](c2ccccc2NC(=O)c2cn(C)nc2C(F)F)CC1 [Number 1, 1H-pyrazole-4-carboxamide, 3-(difluoromethyl)-N-[2-(4-ethylcyclohexyl)phenyl]-1-methyl-, cis-] |  |  | 88 |  | 93 | 99 |  |  |
| Cn1cc(C(=O)Nc2ccccc2[C@H]2CC[C@H](C)CC2)c(C(F)(F)F)n1 [Number 4, 1H-pyrazole-4-carboxamide, 1-methyl-N-[2-(4-methylcyclohexyl)phenyl]-3-(trifluoromethyl)-, trans-] |  |  |  | 41 | 67 |  | 19 | 69 |
